Laboratory results: patent US20230263742A1, “A LIPID” (Stemirna Therapeutics Co., Ltd., priority 2021, published 2023)

What was measured:
Balb/C mice [1] = assay: In vivo Luc expression after tail vein injection of Luc mRNA-LNP; conditions: 5 μg Luc mRNA-LNP tail vein, 6 hours
Procedure: In vivo expression evaluation method: 5 μg Luc (luciferase) mRNA-LNP solution of SW-II-118, SW-120, or SW-121 were injected into the tail vein of Balb/C mice. 6 hours after the administration, the mice are injected 0.15 mg/kg of […] substrate intraperitoneally. Within 15 minutes after the injection of the substrate, the fluorescence signal intensity was tested under a small animal in vivo imaging instrument.

A20 cells = assay: In vitro cell Luc expression, A20; type: cell-based; conditions: 100 ng Luc mRNA-LNP, 24 h
Procedure: (§1) In vitro cell expression evaluation method: C2C12 cells, HepG2 cells, A20 cells were cultured, and 100,000 cells per well were plated on a 96-well plate. 100 ng of LNP samples were mixed with the cells and incubated for 24 hours (n=3), and then the expression was detected using luciferase quantitative kit 24 h after administration.

Balb/C mice [2] = assay: In vivo Luc expression after intramuscular injection, compared with MC3 (Example 4); conditions: 5 μg Luc mRNA-LNP (DSPC) intramuscularly, Balb/C mice n=3, 6 hours; for in vivo Luc expressions (FIG. 2): compared with MC3
Procedure: The mRNA nanoparticle compositions of SW-II-118, SW-120, and SW-121 were prepared according to the method provided in Example 3. The ratios of the lipids were 50:10:38.5:1.5 mol % for cationic lipid: DSPC: cholesterol: PEG-DMG. The cationic lipid MC3 was a current standard in the art. Accordingly, the standard MC3 formulation including 50 mol % MC3, 10 mol % DSPC, 38.5 mol % cholesterol, and 1.5 mol % PEG-DMG was used as a reference for this study.
5 μg of Luc mRNA-LNP of MC3, SW-II-118, SW-II-120, or SW-II-121 was intramuscularly injected into Balb/C mice (n=3). 6 hours after the administration, the mice were injected intraperitoneally with 0.15 mg/kg […] substrate. 15 minutes after the injection of the substrate, the fluorescence signal intensity was tested under a small animal in vivo imaging instrument.

cells = assay: Cytotoxicity, CCK-8 cell viability; type: cell-based; conditions: 200 ng LNP, 24 h, CCK-8, vs cells blank
Procedure: Evaluation method of cytotoxicity: 200 ng of LNP samples were mixed with cells and incubated for 24 h, then the viability was detected using CCK-8 cell viability detection kit. 10 μl of CCK-8 detection reagent was added to the transfected cells and the OD value was detected using a microplate reader at a detection wavelength of 450 nm. The cell viability percentage is obtained by comparing the OD value with that of the cells blank.

C2C12 cells = assay: In vitro cell Luc expression, C2C12; type: cell-based; conditions: 100 ng Luc mRNA-LNP, 24 h
Procedure: as §1

HepG2 cells = assay: In vitro cell Luc expression, HepG2; type: cell-based; conditions: 100 ng Luc mRNA-LNP, 24 h
Procedure: as §1

Balb/C mice [3] = assay: Luc expression in injection site and liver site after intramuscular administration (Example 5); type: in vivo; conditions: 5 μg Luc mRNA-LNP (DSPC) intramuscularly, Balb/C mice n=3, 6 h
Procedure: Further bioluminescence studies were performed to investigate the delivery efficiency of nanoparticle compositions including various lipid compounds according to the present invention. The formulations containing reference cationic lipid M62, M63, M118, and M119 (corresponding to Compound 62, 63, 118, and 119 in PCT/US2018/022717 (WO2018/170306), respectively) were evaluated for comparison. Nanoparticle compositions including DSPC as an optimized phospholipid, cholesterol as a structural lipid, PEG-DMG as a PEG lipid, an RNA, and a compound above mentioned were prepared according to or via methods similar to those described in Examples 1 and 2. The ratios of the lipids were 50:10:38.5:1.5 mol % for the lipid of the present invention: DSPC: cholesterol: PEG-DMG. 5 μg of LNP solution containing luciferase mRNA was administered intramuscularly to Balb/C mice (n=3). 6 hours after administration, mice were injected intraperitoneally with 0.15 mg/kg of D-luciferin substrate. Within 15 minutes after the injection of the substrate, the fluorescence signal intensity in injection site and liver site were tested under a small animal in vivo imaging instrument. Tables 3-4 summarize the fluorescence signal intensity of the nanoparticle compositions including present invention lipids and the reference compounds in injection site and liver site.

| SMILES | In vivo expression (Balb/C mice [1]; phospholipid DAPC) [p/sec/cm^2/sr] | In vivo expression (Balb/C mice [1]; phospholipid DMPE) [p/sec/cm^2/sr] | In vivo expression (Balb/C mice [1]; phospholipid DOPE) [p/sec/cm^2/sr] | In vivo expression (Balb/C mice [1]; phospholipid DPPC) [p/sec/cm^2/sr] | In vivo expression (Balb/C mice [1]; phospholipid DPPE) [p/sec/cm^2/sr] | In vivo expression (Balb/C mice [1]; phospholipid DSPC) [p/sec/cm^2/sr] | In vivo expression (Balb/C mice [1]; phospholipid DSPE) [p/sec/cm^2/sr] | A20 cell, in vitro expression (A20 cells; phospholipid DAPC) | A20 cell, in vitro expression (A20 cells; phospholipid DMPE) | A20 cell, in vitro expression (A20 cells; phospholipid DOPE) | A20 cell, in vitro expression (A20 cells; phospholipid DPPC) | A20 cell, in vitro expression (A20 cells; phospholipid DPPE) | A20 cell, in vitro expression (A20 cells; phospholipid DSPC) | A20 cell, in vitro expression (A20 cells; phospholipid DSPE) | Luc expression in liver site compared with injection site (FIG. 2) (Balb/C mice [2]) | in vivo Luc expressions (FIG. 2) (Balb/C mice [2]) | Viability (%) (cells; phospholipid DAPC) | Viability (%) (cells; phospholipid DMPE) | Viability (%) (cells; phospholipid DOPE) | Viability (%) (cells; phospholipid DPPC) | further results |
| --- | --- | --- | --- | --- | --- | --- | --- | --- | --- | --- | --- | --- | --- | --- | --- | --- | --- | --- | --- | --- | --- |
| CCCCCCCCC(CCCCCCCC)OC(=O)CCCCCCCN(CCO)CCCCCCCC(=O)OCCc1ccc(CCCC)cc1 [SW-II-118] | 8658333.3 | 23780.0 | 38066666.7 | 34323333.3 | 25176.7 | 40156666.7 | 25383333.3 | 5337 | 34438 | 2295 | 12326.5 | 1627.5 | 9068 | 3748 | higher than that in injection site | higher than that of MC3 | 104.0 | 110.8 | 98.7 | 105.4 | Viability (%) (cells; phospholipid DPPE): 162.7%; Viability (%) (cells; phospholipid DSPC): 103.0%; Viability (%) (cells; phospholipid DSPE): 113.9%; C2C12 cell, in vitro expression (C2C12 cells; phospholipid DAPC): 32703.5; C2C12 cell, in vitro expression (C2C12 cells; phospholipid DMPE): 218015.5; C2C12 cell, in vitro expression (C2C12 cells; phospholipid DOPE): 300431.5; C2C12 cell, in vitro expression (C2C12 cells; phospholipid DPPC): 260091; C2C12 cell, in vitro expression (C2C12 cells; phospholipid DPPE): 1254.5; C2C12 cell, in vitro expression (C2C12 cells; phospholipid DSPC): 80658; C2C12 cell, in vitro expression (C2C12 cells; phospholipid DSPE): 46290.5; HepG2 cell, in vitro expression (HepG2 cells; phospholipid DAPC): 6674; HepG2 cell, in vitro expression (HepG2 cells; phospholipid DMPE): 17608.5; HepG2 cell, in vitro expression (HepG2 cells; phospholipid DOPE): 17838.5; HepG2 cell, in vitro expression (HepG2 cells; phospholipid DPPC): 31083; HepG2 cell, in vitro expression (HepG2 cells; phospholipid DPPE): 86; HepG2 cell, in vitro expression (HepG2 cells; phospholipid DSPC): 11247.5; HepG2 cell, in vitro expression (HepG2 cells; phospholipid DSPE): 3053; Luc expression in injection site, I.M. injection site, 6 h (ratio relative to SW-II-134-3 set as 1) (Balb/C mice [3]): 1.450; Luc expression in liver site, Liver site upon I.M., 6 h (ratio relative to SW-II-137-1 set as 1) (Balb/C mice [3]): 2.234 |
| CCCCCCCCC(CCCCCCCC)OC(=O)CCCCCCCN(CCO)CCCCCCCC(=O)OCCc1ccc(CCCCCC)cc1 [SW-II-120] | 39073333.3 | 49736666.7 | 5083666.7 | 21307300.0 | 7056000.0 | 58040000.0 | 128056666.7 | 1764 | 37055.5 | 3578 | 7015 | 54823 | 8101.5 | 1599 | higher than that in injection site | higher than that of MC3 | 99.0 | 87.9 | 115.0 | 102.9 | Viability (%) (cells; phospholipid DPPE): 107.1%; Viability (%) (cells; phospholipid DSPC): 102.3%; Viability (%) (cells; phospholipid DSPE): 97.9%; C2C12 cell, in vitro expression (C2C12 cells; phospholipid DAPC): 17847.5; C2C12 cell, in vitro expression (C2C12 cells; phospholipid DMPE): 228078.5; C2C12 cell, in vitro expression (C2C12 cells; phospholipid DOPE): 815187.5; C2C12 cell, in vitro expression (C2C12 cells; phospholipid DPPC): 147377.5; C2C12 cell, in vitro expression (C2C12 cells; phospholipid DPPE): 471290.5; C2C12 cell, in vitro expression (C2C12 cells; phospholipid DSPC): 44819; C2C12 cell, in vitro expression (C2C12 cells; phospholipid DSPE): 51132.5; HepG2 cell, in vitro expression (HepG2 cells; phospholipid DAPC): 4555.5; HepG2 cell, in vitro expression (HepG2 cells; phospholipid DMPE): 31448.5; HepG2 cell, in vitro expression (HepG2 cells; phospholipid DOPE): 83649.5; HepG2 cell, in vitro expression (HepG2 cells; phospholipid DPPC): 24199.5; HepG2 cell, in vitro expression (HepG2 cells; phospholipid DPPE): 57343; HepG2 cell, in vitro expression (HepG2 cells; phospholipid DSPC): 13068; HepG2 cell, in vitro expression (HepG2 cells; phospholipid DSPE): 2482; Luc expression in injection site, I.M. injection site, 6 h (ratio relative to SW-II-134-3 set as 1) (Balb/C mice [3]): 1.064; Luc expression in liver site, Liver site upon I.M., 6 h (ratio relative to SW-II-137-1 set as 1) (Balb/C mice [3]): 1.318 |
| CCCCCCCCC(CCCCCCCC)OC(=O)CCCCCCCN(CCO)CCCCCCCC(=O)OCCc1ccc(CCCCCCC)cc1 [SW-II-121] | 156336666.7 | 78216666.7 | 47516666.7 | 36323333.3 | 46183333.3 | 12494333.3 | 19344666.7 | 1744.5 | 9110.5 | 4244.5 | 9098 | 27832 | 8006.5 | 508.5 | higher than that in injection site | higher than that of MC3 | 111.1 | 108.5 | 107.5 | 109.64 | Viability (%) (cells; phospholipid DPPE): 108.0%; Viability (%) (cells; phospholipid DSPC): 123.3%; Viability (%) (cells; phospholipid DSPE): 137.0%; C2C12 cell, in vitro expression (C2C12 cells; phospholipid DAPC): 24183; C2C12 cell, in vitro expression (C2C12 cells; phospholipid DMPE): 219379.5; C2C12 cell, in vitro expression (C2C12 cells; phospholipid DOPE): 1003834.5; C2C12 cell, in vitro expression (C2C12 cells; phospholipid DPPC): 93988; C2C12 cell, in vitro expression (C2C12 cells; phospholipid DPPE): 246921; C2C12 cell, in vitro expression (C2C12 cells; phospholipid DSPC): 93333; C2C12 cell, in vitro expression (C2C12 cells; phospholipid DSPE): 41556.5; HepG2 cell, in vitro expression (HepG2 cells; phospholipid DAPC): 3110; HepG2 cell, in vitro expression (HepG2 cells; phospholipid DMPE): 16466; HepG2 cell, in vitro expression (HepG2 cells; phospholipid DOPE): 42994.5; HepG2 cell, in vitro expression (HepG2 cells; phospholipid DPPC): 16064; HepG2 cell, in vitro expression (HepG2 cells; phospholipid DPPE): 25349.5; HepG2 cell, in vitro expression (HepG2 cells; phospholipid DSPC): 7932; HepG2 cell, in vitro expression (HepG2 cells; phospholipid DSPE): 1211.5; Luc expression in injection site, I.M. injection site, 6 h (ratio relative to SW-II-134-3 set as 1) (Balb/C mice [3]): 1.440; Luc expression in liver site, Liver site upon I.M., 6 h (ratio relative to SW-II-137-1 set as 1) (Balb/C mice [3]): 2.150 |
